Measurements published in publication PMC8537445, “D-Peptide-Based Probe for CXCR4-Targeted Molecular Imaging and Radionuclide Therapy” (Pharmaceutics, 2021).
Like-named read-outs stand apart in the source and are kept apart here. Positions of bridges follow the written chain, without caps; N, C: chain ends. Non-standard residues stand in square brackets, D forms with d. Residues, ends and D or L forms follow the SMILES beside them. Groups on a side chain read outwards from the residue. Chains are numbered I, II in the order given. *: point of attachment. DOTA = O=C(O)CN1CCN(CC(=O)O)CCN(CC(=O)*)CCN(CC(=O)O)CC1; 2Nal = N[C@@H](Cc1ccc2ccccc2c1)C(=O)O; dNMeOrn = CN[C@H](CCCN)C(=O)O; 4Amb = NCc1ccc(C(=O)O)cc1

Columns and labels:
murine CXCR4 (mCXCR4) = target: T1, murine CXCR4 (mCXCR4) (Mus musculus, UniProt P70658); test: Competition binding with fluorescent murine CXCL12^AF647 on U87.mCXCR4 cells (flow cytometry)
T1 construct: expressed in transfected cells; host or cells: U87 human glioblastoma cells, stably transfected
T1 sequence (P70658 whole entry): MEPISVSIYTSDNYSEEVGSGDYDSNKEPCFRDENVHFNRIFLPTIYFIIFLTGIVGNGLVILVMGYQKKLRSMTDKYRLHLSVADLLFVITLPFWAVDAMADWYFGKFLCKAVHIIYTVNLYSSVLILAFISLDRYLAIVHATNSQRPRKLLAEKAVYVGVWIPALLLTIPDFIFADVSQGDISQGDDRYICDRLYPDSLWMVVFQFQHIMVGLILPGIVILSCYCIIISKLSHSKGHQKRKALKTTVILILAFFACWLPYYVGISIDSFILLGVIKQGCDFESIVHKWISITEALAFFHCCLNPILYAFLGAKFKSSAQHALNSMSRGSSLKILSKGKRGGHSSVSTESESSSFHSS
Description: Competition binding studies (IC50) were performed as described using either Jurkat cells and human CXCL12^AF647 (Almac, UK) as fluorescent ligand or U87.mCXCR4 cells and murine CXCL12^AF647 (Almac, UK) as fluorescent ligand. […] IC50-values were calculated using nonlinear regression (four parameters) in GraphPad Prism 9 (Graph Pad Software, San Diego, CA, USA) based on three biological replicates for each concentration tested.

[1] = Stability of the peptide in standard labeling conditions (LC-HRMS); format: physicochemical; conditions: aqueous buffer pH 4, 1 h at 95 °C
Description: First, we successfully confirmed previously reported IC50-values of DV1, DV3 and DV1-k-(DV3) for hCXCR4 in an in vitro binding assay (Table 1) and we assessed the stability of the bivalent peptide DV1-k-(DV3) in standard labeling conditions (aqueous buffer pH 4, 1 h at 95 °C).

[2] = Stability in human serum (radioHPLC); format: in vitro ADME; conditions: male, human serum (H4522 human male AB plasma), 5-fold dilution in human serum, 9 days at 37 °C, read-out: intact radioligand in human serum
Description: Formulated solutions of [^18F]AlF-NOTA-DV1-k-(DV3) and [^68Ga]Ga-DOTA-DV1-k-(DV3) were evaluated by radioHPLC 5 h and 2 h after radiosynthesis, respectively. In addition, 5-fold dilutions in human serum (H4522 human male AB plasma, USA origin, sterile-filtered, Sigma Aldrich, Saint Louis, MO, USA) were incubated at 37 °C for 2 h and analyzed using radioHPLC.
A formulated solution of [^177Lu]Lu-DOTA-DV1-k-(DV3) was evaluated by radioHPLC after 9 days of storage at 4 °C. A 5-fold dilution of [^177Lu]Lu-DOTA-DV1-k-(DV3) in human serum (H4522 human male AB plasma, USA origin, sterile-filtered, Sigma Aldrich, Saint Louis, MO, USA) was incubated at 37 °C for 9 days and analyzed by radioHPLC.

[3] = Ex vivo biodistribution in wild-type mice; conditions: mouse, total radioactivity, 75 min p.i., ex vivo gamma counting, mean ± SD
Description: The in vivo pharmacokinetics of the selected radioligands were first evaluated in wild-type mice by performing a whole-body biodistribution study. […] Blood and major organs were collected in tared tubes and weighed. Quantification of radioactivity in blood, organs, and other body parts was performed using an automated gamma counter equipped with a 3-inch NaI(Tl) well crystal coupled to a multichannel analyzer, mounted in a sample changer (2480 Wizard^2, Perkin Elmer, Waltham, MA, USA). Counts were corrected for background radiation, physical decay and counter dead time. Results are presented as standardized uptake values (SUV; tissue activity concentration (MBq/g)/[injected dose (MBq)/body weight (g)]).

in vivo = conditions: female, SCID (CB17.Cg-Prkdc<scid>Lyst<bg-J>/Crl), mouse, tumor, iv, total radioactivity
Description: The subcutaneous tumor xenograft model was prepared using a published procedure [21]. Briefly, 1 × 10^6 U87.hCXCR4 cells mixed with Cultrex (1:1; Cultrex Basement Membrane Extract, R&D systems, Minneapolis, MN, USA) were implanted subcutaneously into the right shoulder of female 10-week-old SCID mice (CB17.Cg-PrkdcLyst<bg-J>/Crl; Charles River Laboratories, Sulzfeld, Germany). After an average of four weeks, the animals were used in biodistribution and PET/computed tomography (CT) imaging studies. Tumor volumes ranged from 150–574 mm^3 (measured by caliper, h × l × w), while the tumor mass-to-body weight ratio was 0.14–2.34%.
Dynamic PET images were acquired for 60 min immediately after intravenous injection using a beta-cube PET scanner (Molecubes, Gent, Belgium). The mice were kept under gas anesthesia during the entire procedure (2.5% isoflurane in O2 at 1 L/min flow rate), with temperature and respiration monitored throughout. […]
PET data were histogrammed into 14 frames (4 × 15 s, 4 × 1 min, 1 × 5 min, 5 × 10 min) and reconstructed into a 192 × 192 image matrix with 0.4 mm voxels using 30 iterations the native MLEM algorithm with corrections for randoms, scatter, attenuation and decay. […] Radiotracer uptake at 60 min, expressed as SUVmean, was the outcome measure.

[4] = target: T2, hCXCR4-expressing U87 cells (U87.hCXCR4) (Homo sapiens, UniProt P61073); test: Binding and internalization assay on U87.hCXCR4 cells; format: cell-based; conditions: AMD3100 100 µM
T2 construct: expressed in transfected cells; host or cells: U87 human glioblastoma cells, stably transfected
T2 sequence (P61073 whole entry): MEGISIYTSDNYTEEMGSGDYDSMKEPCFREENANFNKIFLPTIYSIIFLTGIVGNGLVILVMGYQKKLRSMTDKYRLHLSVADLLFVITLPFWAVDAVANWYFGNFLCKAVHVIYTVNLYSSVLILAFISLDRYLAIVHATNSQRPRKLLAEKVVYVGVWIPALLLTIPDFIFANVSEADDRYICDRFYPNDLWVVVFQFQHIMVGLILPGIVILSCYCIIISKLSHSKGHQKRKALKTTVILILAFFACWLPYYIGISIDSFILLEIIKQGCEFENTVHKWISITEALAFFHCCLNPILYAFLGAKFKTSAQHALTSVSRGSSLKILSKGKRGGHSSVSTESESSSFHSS
Description: Cellular uptake and internalization of [^18F]AlF-NOTA-DV1-k-(DV3), [^68Ga]Ga-DOTA-DV1-k-(DV3) and [^177Lu]Lu-DOTA-DV1-k-(DV3) (11, 17 and 7 nM respectively) into U87.hCXCR4 cells (2.5 × 10^5 cells) were investigated and compared with [^68Ga]PentixaFor (6 nM) as control. […] After incubation, the supernatant was removed and combined with 3 mL of ice-cold PBS used for rinsing the cells (unbound fraction). Subsequently, cells were incubated twice with 50 mM Glycine-HCl pH 2.8 for 5 min at room temperature, followed by one washing step with ice-cold PBS (membrane-bound fraction). Then, cells were lysed using 350 µL of reagent A100 (Chemometec, Allerod, Denmark). Reagent B (Chemometec, Allerod, Denmark) was used for rinsing the wells and to quench the lysing of the cells. Quantification of the amount of bound and internalized activity was performed using an automated gamma counter. The number of cells per well was counted using an automated counting device (NucleoCounter® NC-100™, Chemometec, Allerod, Denmark). Results were expressed as percentage of applied radioactivity bound to 2.5 × 10^5 cells.

CN1C(=O)[C@@H](Cc2ccc(O)cc2)NC(=O)CNC(=O)[C@H](Cc2ccc3ccccc3c2)NC(=O)[C@H](CCCNC(=N)N)NC(=O)[C@H]1CCCNC(=O)c1ccc(CNC(=O)CN2CCN(CC(=O)O)CCN(CC(=O)O)CCN(CC(=O)O)CC2)cc1 [[^natGa]PentixaFor, metal not drawn] (cyclo([dY][dNMeOrn]([4Amb-DOTA])R[2Nal]G))
IC50 (murine CXCR4 (mCXCR4); read-out: IC50 [nM] to mCXCR4, murine CXCL12^AF647 as fluorescent ligand, mean ± SD, n = 3): > 1000 nM

CC(C)C[C@@H](N)C(=O)NCC(=O)N[C@H](C)C(=O)N[C@H](CO)C(=O)N[C@H](Cc1c[nH]c2ccccc12)C(=O)N[C@H](Cc1c[nH]cn1)C(=O)N[C@H](CCCNC(=N)N)C(=O)N1CCC[C@@H]1C(=O)N[C@H](CC(=O)O)C(=O)N[C@H](CCCCN)C(=O)NCCCC[C@@H](NC(=O)[C@H]1CCCN1C(=O)[C@@H](CC(C)C)NC(=O)[C@H]1CCCN1C(=O)[C@@H](CCCNC(=N)N)NC(=O)[C@@H](CCCCN)NC(=O)[C@@H](CCC(N)=O)NC(=O)[C@@H](Cc1ccc(O)cc1)NC(=O)CNC(=O)[C@@H](CC(C)C)NC(=O)[C@@H](CS)NC(=O)[C@@H](CS)NC(=O)[C@@H](CCCCN)NC(=O)[C@@H](CC(=O)O)NC(=O)[C@H]1CCCN1C(=O)[C@@H](CCCNC(=N)N)NC(=O)[C@@H](Cc1c[nH]cn1)NC(=O)[C@@H](Cc1c[nH]c2ccccc12)NC(=O)[C@@H](CO)NC(=O)[C@@H](C)NC(=O)CNC(=O)[C@H](N)CC(C)C)C(=O)O [DV1-k-(DV3)] (I: H-[dL]G[dA][dS][dW][dH][dR][dP][dD][dK][dC][dC][dL]G[dY][dQ][dK][dR][dP][dL][dP][dK]-OH / II: H-[dL]G[dA][dS][dW][dH][dR][dP][dD][dK]; amide I:22-II:C)
stability in standard labeling conditions [1]: No degradation products were detected

CC(C)C[C@@H](N)C(=O)NCC(=O)N[C@H](C)C(=O)N[C@H](CO)C(=O)N[C@H](Cc1c[nH]c2ccccc12)C(=O)N[C@H](Cc1c[nH]cn1)C(=O)N[C@H](CCCNC(=N)N)C(=O)N1CCC[C@@H]1C(=O)N[C@H](CC(=O)O)C(=O)N[C@H](CCCCNC(=O)CN1CCN(CC(=O)O)CCN(CC(=O)O)CCN(CC(=O)O)CC1)C(=O)NCCCC[C@@H](NC(=O)[C@H]1CCCN1C(=O)[C@@H](CC(C)C)NC(=O)[C@H]1CCCN1C(=O)[C@@H](CCCNC(=N)N)NC(=O)[C@@H](CCCCN)NC(=O)[C@@H](CCC(N)=O)NC(=O)[C@@H](Cc1ccc(O)cc1)NC(=O)CNC(=O)[C@@H](CC(C)C)NC(=O)[C@@H](CS)NC(=O)[C@@H](CS)NC(=O)[C@@H](CCCCN)NC(=O)[C@@H](CC(=O)O)NC(=O)[C@H]1CCCN1C(=O)[C@@H](CCCNC(=N)N)NC(=O)[C@@H](Cc1c[nH]cn1)NC(=O)[C@@H](Cc1c[nH]c2ccccc12)NC(=O)[C@@H](CO)NC(=O)[C@@H](C)NC(=O)CNC(=O)[C@H](N)CC(C)C)C(=O)O [[^177Lu]Lu-DOTA-DV1-k-(DV3), metal not drawn] (I: H-[dL]G[dA][dS][dW][dH][dR][dP][dD][dK][dC][dC][dL]G[dY][dQ][dK][dR][dP][dL][dP][dK]-OH / II: H-[dL]G[dA][dS][dW][dH][dR][dP][dD][dK](DOTA); amide I:22-II:C)
remaining at 216 h [2]: > 98%

c1cc(CN2CCCNCCNCCCNCC2)ccc1CN1CCCNCCNCCCNCC1 [AMD3100]
IC50 (murine CXCR4 (mCXCR4); murine CXCL12^AF647 as fluorescent ligand, mean ± SD, n = 3, read-out: IC50 [nM] to mCXCR4): 123 ± 17 nM

CN1C(=O)[C@@H](Cc2ccc(O)cc2)NC(=O)CNC(=O)[C@H](Cc2ccc3ccccc3c2)NC(=O)[C@H](CCCNC(=N)N)NC(=O)[C@H]1CCCNC(=O)c1ccc(CNC(=O)CN2CCN(CC(=O)O)CCN(CC(=O)O)CCN(CC(=O)O)CC2)cc1 [[^68Ga]PentixaFor, metal not drawn] (cyclo([dY][dNMeOrn]([4Amb-DOTA])R[2Nal]G))
SUV at 1.25 h ([3]; blood, + AMD3100 5 mg/kg, n: PentixaFor 1, 18F 2, 68Ga 4, 177Lu 3, read-out: blood uptake): 0.5 SUV
SUV at 1.25 h ([3]; blood, tracer alone, n: PentixaFor 3, 18F 5, 68Ga 4, 177Lu 3, read-out: blood uptake): 0.6 ± 0.1 SUV
SUV at 1.25 h ([3]; bone (femur harboring bone marrow), tracer alone, n: PentixaFor 3, 18F 5, 68Ga 4, 177Lu 3, read-out: bone uptake (femur harboring bone marrow)): 0.2 ± 0.01 SUV
SUV at 1.25 h ([3]; brain, + AMD3100 5 mg/kg, n: PentixaFor 1, 18F 2, 68Ga 4, 177Lu 3, read-out: brain uptake): 0.02 SUV
SUV at 1.25 h ([3]; brain, tracer alone, n: PentixaFor 3, 18F 5, 68Ga 4, 177Lu 3, read-out: brain uptake): 0.03 ± 0.01 SUV
SUV at 1.25 h ([3]; heart, + AMD3100 5 mg/kg, n: PentixaFor 1, 18F 2, 68Ga 4, 177Lu 3, read-out: heart uptake): 0.3 SUV
SUV at 1.25 h ([3]; heart, tracer alone, n: PentixaFor 3, 18F 5, 68Ga 4, 177Lu 3, read-out: heart uptake): 0.3 ± 0.02 SUV
SUV at 1.25 h ([3]; kidneys, tracer alone, n: PentixaFor 3, 18F 5, 68Ga 4, 177Lu 3, read-out: kidneys uptake): 1.9 ± 1.1 SUV
SUV at 1.25 h ([3]; liver, + AMD3100 5 mg/kg, n: PentixaFor 1, 18F 2, 68Ga 4, 177Lu 3, read-out: liver uptake): 0.5 SUV
SUV at 1.25 h ([3]; liver, tracer alone, n: PentixaFor 3, 18F 5, 68Ga 4, 177Lu 3, read-out: liver uptake): 0.6 ± 0.1 SUV
SUV at 1.25 h ([3]; lungs, + AMD3100 5 mg/kg, n: PentixaFor 1, 18F 2, 68Ga 4, 177Lu 3, read-out: lungs uptake): 0.7 SUV
SUV at 1.25 h ([3]; lungs, tracer alone, n: PentixaFor 3, 18F 5, 68Ga 4, 177Lu 3, read-out: lungs uptake): 0.7 ± 0.1 SUV
SUV at 1.25 h ([3]; muscle, + AMD3100 5 mg/kg, n: PentixaFor 1, 18F 2, 68Ga 4, 177Lu 3, read-out: muscle uptake): 0.2 SUV
SUV at 1.25 h ([3]; muscle, tracer alone, n: PentixaFor 3, 18F 5, 68Ga 4, 177Lu 3, read-out: muscle uptake): 0.2 ± 0.03 SUV
SUV at 1.25 h ([3]; pancreas, + AMD3100 5 mg/kg, n: PentixaFor 1, 18F 2, 68Ga 4, 177Lu 3, read-out: pancreas uptake): 0.3 SUV
SUV at 1.25 h ([3]; pancreas, tracer alone, n: PentixaFor 3, 18F 5, 68Ga 4, 177Lu 3, read-out: pancreas uptake): 0.3 ± 0.1 SUV
SUV at 1.25 h ([3]; spleen, + AMD3100 5 mg/kg, n: PentixaFor 1, 18F 2, 68Ga 4, 177Lu 3, read-out: spleen uptake): 0.3 SUV
SUV at 1.25 h ([3]; spleen, tracer alone, n: PentixaFor 3, 18F 5, 68Ga 4, 177Lu 3, read-out: spleen uptake): 0.3 ± 0.02 SUV
SUV at 1 h (in vivo): 2.9 SUV
blocking of cellular uptake by excess AMD3100 [4]: completely blocked
